Measured values published in patent publication US20050170966A1, “Surfactants and surfactant compositions” (priority 2002, published 2005).

Columns and labels:
Assay type in all cases: in vivo
[1] = system: mixtures of weeds: Cockspur (Echinochloa crus-galli), Fat-hen (Chenopodium album), Smartweed (Polygonum persicaria); assay: Field trial: adjuvant effect on Glyphosate herbicidal activity on mixed weed plots; conditions: glyphosate 1080 g(a.e.).ha^-1, adjuvant 540 g.ha^-1 (2:1)
Description: This Example tests the effect of adjuvants on Glyphosate herbicidal activity under field conditions. The herbicide was applied to test plots of weeds at a rate of 1080 g(a.e.).ha^−1 (350 l.ha^−1 of spray containing 3.086 g.l^−1 a.e.) with a weight ratio of active to adjuvant of 2:1=540 g(adjuvant).ha^−1. Spray plots were treated with the herbicide formulations, one of each of four adjuvants of the invention (SE1, SE2, SE3, and SE4) a fatty amine ethoxylate (FAE1) for comparison, or left untreated as controls (no weed control). The spray plots were in a completely randomised block design with 3 replicates of 3×5 m plots. the sprayed plots were sprayed using a compressed-air AZO sprayer at a pressure of 2.5 bar, equipped with Teejet XR80015VS nozzles. During this trial, it rained for about 15 minutes about 2 hours after spraying, giving a good indication of the rainfastness off the formulations tested.
The test plots used mixtures of the following weeds at the 2 to 4 leaf stage:
The results of spraying were evaluated by visual comparison with untreated control blocks 12, 20 and 35 days after treatment (DAT), assessing chlorosis (chlor) and growth inhibition (inhib) as percentages with 0=no effect and 100=complete kill as compared with the untreated controls.

[2] = system: Bindweed (Convolvulus arvensis); assay: Greenhouse trial of adjuvant with glyphosate; conditions: for % kill: 7 DAT; for % fresh wt 33 days (foliage): 33 DAT
Text: (§1) This Example goves the results of greenhouse trials to investigate the adjuvant properties of compound SE2, with a fatty amine ethoxylate (FAE1) for comparitison, used in combination with glyphosate (isopropylamine salt?) as a herbicide against Couchgrass (Agropyron repens) and Bindweed (Convolvulus arvensis). Glyphosate doses of 180, 360 and 540 g(a.e.).ha^−1 were used against A. repens and 540, 810 and 1080 g(a.e.).ha^−1 against C. arvensis. The spray volume was 200 l.ha^−1 and ratios of glyphosate (active ingredient) to adjuvant of 2:0.75 (37.5%); 2:0.5 (25%); 2:0.25 (12.5%) and 2:0.1 (5%) (percentage figres in brackets are by weight adjuvant based on glyphosate a.e.) were tested. Weed kill was visually assessed 7, 14 and 21 days after treatment (DAT) and the % fresh weight of foliage was determined 22 and 33 DAT for A. repens and C. arvensis respectively. The % kill results at 7 DAT are set out in Table 3a and the % fresh weight of foliage determined 22 and 33 DAT is reported in Table 3b below. The % fresh weight of foliage is determined 22 and 33 DAT for A. repens and C. arvensis respectively and the results are included in Table 3b below: […]

[3] = system: Couchgrass (Agropyron repens); assay: Greenhouse trial of adjuvant with glyphosate; conditions: for % kill: 7 DAT; for % fresh wt 22 days (foliage): 22 DAT
Text: as §1

Italian ryegrass = assay: Field trial of glyphosate formulations with adjuvant; conditions: It R; 6 DAT; glyphosate 1080 g(a.e).ha^-1, adjuvant 405 g.ha^-1
Description: (§2) In this Example, adjuvants of the invention (SE2), plus TAE1 as control, were tested in field trials in formulations including glyphosate (isopropylamine salt) as a herbicide on flax, pea, Savoy cabbage (Sav C) and Italian ryegrass (It R) as target crops. The application rate was 1080 g(a.e).ha^−1, with adjuvant at an application rate of 405 g.ha^−1 (75% of the normal application rate for adjuvants in such formulations of 540 g.ha^−1). The effectiveness of the formulations was by visual assessment of Growth Reduction (Gr Red) and Chlorosis/Necrosis (Chlor) 6 DAT with the values being reported in % (related to an untreated control=0% effect).

Savoy cabbage = assay: as above; conditions: Sav C; 6 DAT; glyphosate 1080 g(a.e).ha^-1, adjuvant 405 g.ha^-1
Description: as §2

flax = assay: as above; conditions: 6 DAT, glyphosate 1080 g(a.e).ha^-1, adjuvant 405 g.ha^-1
Description: as §2

pea = assay: as above; conditions: 6 DAT, glyphosate 1080 g(a.e).ha^-1, adjuvant 405 g.ha^-1
Description: as §2

Substance: 1-[Bis-(2-hydroxyethyl)-amino]-2-hydroxypropane-3-(Alc1 15-ethoxylate) [SE2]
- inhib (%) growth inhibition ([1]; 12 DAT): 70%
- chlor (%) chlorosis ([1]; 12 DAT, 0=no effect, 100=complete kill): 68%
- chlor (%) chlorosis ([1]; 20 DAT): 75%
- inhib (%) growth inhibition ([1]; 20 DAT): 75%
- chlor (%) chlorosis ([1]; 35 DAT): 77%
- inhib (%) growth inhibition ([1]; 35 DAT): 77%
- % kill ([2]; Gly 540, Adj 5% Gly): 14.29%
- % kill ([2]; Gly 540, Adj 12.5% Gly): 14.29%
- % kill ([2]; Gly 540, Adj 25% Gly): 14.29%
- % kill ([2]; Gly 540, Adj 37.5% Gly): 14.29%
- % kill ([2]; Gly 810, Adj 5% Gly): 14.29%
- % kill ([2]; Gly 810, Adj 12.5% Gly): 17.86%
- % kill ([2]; Gly 810, Adj 25% Gly): 14.29%
- % kill ([2]; Gly 810, Adj 37.5% Gly): 14.29%
- % kill ([2]; Gly 1080, Adj 5% Gly): 14.29%
- % kill ([2]; Gly 1080, Adj 12.5% Gly): 14.29%
- % kill ([2]; Gly 1080, Adj 25% Gly): 14.29%
- % kill ([2]; Gly 1080, Adj 37.5% Gly): 14.29%
- % fresh wt 33 days (foliage) ([2]; Gly 540, 5 wt % adjuvant): 54.61%
- % fresh wt 33 days (foliage) ([2]; Gly 540, 12.5 wt % adjuvant): 54.21%
- % fresh wt 33 days (foliage) ([2]; Gly 540, 25 wt % adjuvant): 54.97%
- % fresh wt 33 days (foliage) ([2]; Gly 540, 37.5 wt % adjuvant): 53.73%
- % fresh wt 33 days (foliage) ([2]; Gly 810, 5 wt % adjuvant): 53.91%
- % fresh wt 33 days (foliage) ([2]; Gly 810, 12.5 wt % adjuvant): 62.03%
- % fresh wt 33 days (foliage) ([2]; Gly 810, 25 wt % adjuvant): 52.01%
- % fresh wt 33 days (foliage) ([2]; Gly 810, 37.5 wt % adjuvant): 55.38%
- % fresh wt 33 days (foliage) ([2]; Gly 1080, 5 wt % adjuvant): 50.55%
- % fresh wt 33 days (foliage) ([2]; Gly 1080, 12.5 wt % adjuvant): 53.29%
- % fresh wt 33 days (foliage) ([2]; Gly 1080, 25 wt % adjuvant): 46.2%
- % fresh wt 33 days (foliage) ([2]; Gly 1080, 37.5 wt % adjuvant): 43.89%
- % kill ([3]; Gly 180, Adj 5% Gly): 17.86%
- % kill ([3]; Gly 180, Adj 12.5% Gly): 17.86%
- % kill ([3]; Gly 180, Adj 25% Gly): 21.43%
- % kill ([3]; Gly 180, Adj 37.5% Gly): 21.43%
- % kill ([3]; Gly 360, Adj 5% Gly): 14.29%
- % kill ([3]; Gly 360, Adj 12.5% Gly): 28.57%
- % kill ([3]; Gly 360, Adj 25% Gly): 32.14%
- % kill ([3]; Gly 360, Adj 37.5% Gly): 25%
- % kill ([3]; Gly 540, Adj 5% Gly): 28.57%
- % kill ([3]; Gly 540, Adj 12.5% Gly): 25%
- % kill ([3]; Gly 540, Adj 25% Gly): 35.71%
- % kill ([3]; Gly 540, Adj 37.5% Gly): 39.29%
- % fresh wt 22 days (foliage) ([3]; Gly 180, 5 wt % adjuvant): 95.49%
- % fresh wt 22 days (foliage) ([3]; Gly 180, 12.5 wt % adjuvant): 59.81%
- % fresh wt 22 days (foliage) ([3]; Gly 180, 25 wt % adjuvant): 48.07%
- % fresh wt 22 days (foliage) ([3]; Gly 180, 37.5 wt % adjuvant): 53.01%
- % fresh wt 22 days (foliage) ([3]; Gly 360, 5 wt % adjuvant): 63.31%
- % fresh wt 22 days (foliage) ([3]; Gly 360, 12.5 wt % adjuvant): 35.66%
- % fresh wt 22 days (foliage) ([3]; Gly 360, 25 wt % adjuvant): 29.69%
- % fresh wt 22 days (foliage) ([3]; Gly 360, 37.5 wt % adjuvant): 40.02%
- % fresh wt 22 days (foliage) ([3]; Gly 540, 5 wt % adjuvant): 23.83%
- % fresh wt 22 days (foliage) ([3]; Gly 540, 12.5 wt % adjuvant): 19.63%
- % fresh wt 22 days (foliage) ([3]; Gly 540, 25 wt % adjuvant): 19.6%
- % fresh wt 22 days (foliage) ([3]; Gly 540, 37.5 wt % adjuvant): 18.36%
- Chlor (%) Chlorosis/Necrosis (Italian ryegrass): 50%
- Chlor (%) Chlorosis/Necrosis (Savoy cabbage): 40%
- Chlor (%) Chlorosis/Necrosis (flax): 50%
- Gr Red (%) Growth Reduction (flax): 30%
- Chlor (%) Chlorosis/Necrosis (pea): 80%
- Gr Red (%) Growth Reduction (pea): 55%
